Assay results reported in patent US20030198636A1, “Process for inhibiting complement activation via the alternative pathway” (priority 1997, published 2003).
Residues, ends and D or L forms follow the SMILES beside them. No end group written: not given here.

What was measured:
[1] = target: T1, properdin binding to C3bBb (Homo sapiens, UniProt P01024+P27918); assay: C3b(Bb)-properdin binding inhibition in human serum (ELISA); settings: peptides; tested as described in Example 2; read-out: IC50, blocking of C3bBb binding
T1 construct: The resulting convertase proteolytically modifies C3, producing the C3b fragment; tissue Sigma Chemical Company (serum)
Protocol: This assay was carried out as described in Example 1 above with some changes. Briefly, microtiter wells were coated with C3b, washed, blocked and incubated with various concentrations of normal human serum (NHS) (Sigma Chemical Company, Cat. No. S1764) diluted in blocking solution for 2 hours at room temperature. Under the conditions of this binding assay, factor B in serum will bind solid phase-bound C3b and, after cleavage by factor D in serum, generates C3bBb. Properdin is known to bind C3bBb with high affinity (Farries, T. C., P. J. Lachmann, and R. A. Harrison, 1988, Biochem. 252:47-54). Uncoated wells served as background controls. After washing, bound-properdin was detected with the anti-properdin antibody as described in Example 1 above.
To evaluate the effect of the blocking antibody to inhibit properdin binding to C3b(Bb), various concentrations of the blocking antibody described in Example 1 above were added to a fixed concentrations of serum (4% in blocking solution). The amount of properdin bound to C3b(Bb) was detected using the detection system described in Example 1 above.

[2] = tested on: C5b-9 membrane-attack complex (MAC) formation via the alternative pathway; assay: Alternative pathway-dependent MAC assay on LPS-coated wells (ELISA); type: biochemical, human; settings: peptides; ELISA as described in Example 3; read-out: IC50, inhibition of MAC formation
Text: The binding data of Examples 1 and 2 above reveal that the properdin monoclonal antibody prevents the binding of properdin to C3b and the functional C3 convertase (C3bBb). […] The final end product of this pathway is the C5b-9 membrane-attack complex (MAC). To analyze the effects of the properdin antibody on MAC formation via the alternative pathways, an assay was utilized in which bacterial LPS was used as a substrate to initiate the alternative complement pathway cascade.
Microtiter wells were coated with LPS (2 μg/50 μl per well) in VBS overnight at 4° C. Uncoated wells served as background controls. After aspirating the LPS solution, wells were treated with blocking solution and incubated with various concentrations of normal human serum. Following a 3 hour incubation at 37° C., deposited MAC was detected with mouse anti-human soluble C5b-9 monoclonal antibody (Quidel, Cat. No. A239) using standard ELISA methodologies essentially as described in the Examples above. The effect of the blocking antibody on the MAC formation was evaluated by adding various concentrations of blocking antibody to a fixed concentration of serum (4% in blocking solution). The amount of inhibition of soluble C5b-9 formation was determined using the antibody detection system described in the Examples above.

[3] = target: T2, binding of properdin to C3b coated plates (Homo sapiens, UniProt P01024); settings: peptides at 0-200 μg/ml; cited from earlier work
T2 construct: The resulting convertase proteolytically modifies C3, producing the C3b fragment

[4] = target: T3, human C3b (Homo sapiens, UniProt P01024); assay: C3b-properdin binding ELISA (properdin titration on immobilized C3b); settings: FIG. 1, read-out: apparent binding constant (concentration of properdin needed to reach half-maximal binding to C3b)
T3 construct: The resulting convertase proteolytically modifies C3, producing the C3b fragment; purchased Calbiochem, San Diego, Calif; 204860
Protocol: Polystyrene microtiter plates were coated with human C3b (0.5 μg/50 μl per well) (Calbiochem, San Diego, Calif., Cat. No. 204860) in Veronal buffered saline (VBS): (5 mM diethyl barbiturate, 120 mM NaCl, 5 mM MgCl2, 5 mM EGTA) overnight at 4° C. After aspirating the C3b solution, wells were blocked with VBS containing 0.5% human serum albumin (HSA) (Sigma Chemical Company, St. Louis, Mo., Cat. No. A9511) for 2 hours at room temperature. Wells without C3b coating served as background controls. Aliquots of human properdin (or factor P) (Advanced Research Technology, San Diego, Calif., Cat. No. A139) at varying concentrations in blocking solution were added to the wells. Following a 2 hour incubation at room temperature, the wells were extensively rinsed with VBS.
C3b-bound properdin was detected by the addition of mouse monoclonal anti-human properdin antibody (detection antibody) (Quidel, San Diego, Calif., anti-human properdin monoclonal antibody P#2, Cat. No. A235) at 1:1000 dilution in blocking solution, which was allowed to incubate for 1 hour at room temperature. […] After incubation for 10 minutes at 25° C., the reaction of TMB was quenched by the addition of 100 μl of phosphoric acid, and the plate was read at 450 nm in a microplate reader (e.g., SPECTRA MAX 250, Molecular Devices, Sunnyvale, Calif.). […]

[5] = tested on: Fcγ receptors on neutrophils; assay: Chemiluminescence assay for superoxide production in diluted whole blood; type: cell-based; settings: 5 μg/ml properdin alone
Text: Such agents may be screened for their ability to activate Fcγ receptors by a variety of assays known in the art. Since superoxide generation is one of the classic responses of neutrophils and other phagocytes to activation via Fcγ receptors (RII), a specific assay for superoxide release from cells in diluted whole blood was utilized to screen and evaluate agents and the possible role of Fcγ receptors in neutrophil activation by such an agent. Monoclonal antibody agents are generally ineffective aggregating agents upon binding to their antigen and thus ineffective to activate Fcγ receptors via immune complex formation. However, Fcγ activation was detected for a blocking anti-properdin monoclonal antibody as follows.
A chemiluminescence assay for superoxide production in diluted whole blood was performed (Tose, M. F. and A. Itamedani, 1992, Am. J. Clin. Pathol. 97:566-573). Fresh blood was collected by a finger prick and rapidly diluted 350-fold into phenol red-free RPMI-1640 media containing Pen-Strep which was buffered with 10 mM HEPES (pH 7.4) at 37° C. The media also contains 10 μM lucigenin (Sigma Chemical Co.), a compound which becomes chemiluminescent when reduced by superoxide. […] At regular intervals, chemiluminescence was monitored by transferring each sample into a liquid scintillation counter (Packard Model 1900 TR) operated in a single photon mode to determine the “cpm”.

Row | IC50 [1] [µM] | IC50 [2] [µM] | Kd [4] [µM] | Compound | compete with properdin for C3 binding [3] | superoxide levels over control levels [5]
1 | 400 to 600 | 268 | – | CC(=O)NCC(=O)N[C@@H](CC(C)C)C(=O)N[C@@H](CS)C(=O)N[C@@H](CCC(N)=O)C(=O)N1CCC[C@H]1C(=O)N[C@@H](CS)C(=O)N[C@@H](CCCNC(=N)N)C(=O)N[C@@H](CO)C(=O)N1CCC[C@H]1C(=O)N[C@@H](CCCNC(=N)N)C(=O)O [Peptide 1] (Ac-GLCQPCRSPR-OH; N-terminus and C-terminus assumed) | compete | –
2 | 400 to 600 | 242 | – | Ac-RYRRCVGWNG (N-terminus assumed) [peptide 3] | compete | –
3 | 400 to 600 | 335 | – | Ac-CRSPRWSLWS (N-terminus assumed) [peptide 2] | compete | –
4 | – | – | ~0.001 | human properdin: human properdin (or factor P), Advanced Research Technology Cat. No. A139 | – | not significantly elevated
